In PubChem BioAssay (NCI):
Where “and” joins values, the source holds several entries; their conditions need not be identical. Identical values can stand only once.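 Compound exposure: 48 hours, 5 concentrations, 96-well plates. GI50 = concentration required for 50% inhibition of growth. TGI is the concentration that stops growth completely.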

How the values were obtained:
Experiment in all cases: growth of human tumour cells (NCI), 48 h
SF-539 CNS = tested on: SF-539 CNS
HCC-2998 colon = tested on: HCC-2998 colon
MOLT-4 leukemia = tested on: MOLT-4 leukemia
SK-MEL-28 melanoma = tested on: SK-MEL-28 melanoma
BT-549 breast = tested on: BT-549 breast
PC-3 prostate = tested on: PC-3 prostate
OVCAR-3 ovarian = tested on: OVCAR-3 ovarian
NCI-H460 lung = tested on: NCI-H460 lung

Structure (SMILES)	GI50 (SF-539 CNS)	TGI (SF-539 CNS)	GI50 (HCC-2998 colon)	TGI (HCC-2998 colon)	GI50 (MOLT-4 leukemia)	TGI (MOLT-4 leukemia)	GI50 (SK-MEL-28 melanoma)	TGI (SK-MEL-28 melanoma)	GI50 (BT-549 breast)	TGI (BT-549 breast)	GI50 (PC-3 prostate)	TGI (PC-3 prostate)	GI50 (OVCAR-3 ovarian)	TGI (OVCAR-3 ovarian)	GI50 (NCI-H460 lung)	TGI (NCI-H460 lung)
CCCN(CCC)C(=O)[C@H](CC)[C@@H]1CC[C@@H](C)[C@@H]([C@H](C)[C@@H](O)[C@@H](C)C(=O)[C@H](CC)C2O[C@]3(C=C[C@@H](O)[C@]4(CC[C@@](C)([C@H]5CC[C@](O)(CC)[C@H](C)O5)O4)O3)[C@H](C)C[C@@H]2C)O1 (stereo partly drawn)	2.06 µM	4.2 µM	2.18 µM	5.76 µM	2.39 µM	6.41 µM	4.5 µM	17.9 µM	3.05 µM	13.2 µM	2.05 µM	11 µM	1.84 µM	4.46 µM	2.07 µM	4.62 µM
COc1cccc2c(=O)c3c(sc12)c(NCCN(C)C)nc1ccccc13	1.61 µM	3.01 µM	1.47 µM	3.02 µM	0.398 µM	1.66 µM	1.92 µM	3.49 µM	2.31 µM	10.1 µM	1.34 µM	3.03 µM	1.61 µM	3.22 µM	1.34 µM	2.88 µM
COc1cc([N+](=O)[O-])c(OC)cc1-c1nc2sc(Cl)cn2c1/C=N/NC(=N)N/N=C/c1c(-c2cc(OC)c([N+](=O)[O-])cc2OC)nc2sc(Cl)cn12	0.387 µM	1.8 µM	1.69 µM	3.15 µM			3.19 µM	> 100 µM			1.97 µM	3.47 µM			2.57 µM	7.13 µM
CC1=C(C(=O)Nc2ccc(F)c(Cl)c2)C(c2cccc(Oc3ccccc3)c2)NC(=O)N1 (stereo not drawn)	14.6 µM	28.3 µM	14.6 µM	27.8 µM			14.7 µM	28.1 µM	15.3 µM	31.1 µM	10.5 µM	22.3 µM	20.7 µM	57.3 µM	15.7 µM	38.4 µM
Cc1nn(-c2nc3ccccc3[nH]2)c2c1C(c1ccc3c(c1)OCO3)CC(=O)N2 (stereo not drawn)	2.16 µM	4.82 µM	3.7 µM	> 24.3 µM	0.0422 µM	0.214 µM	3.39 µM	32.6 µM	3.26 µM	14.2 µM	3.16 µM	22 µM	2.38 µM	5.17 µM	2.36 µM	5.55 µM
Clc1ccc2c(c1)-c1ccccc1C1=NCCN12	3 µM	10.4 µM	1.87 µM	3.76 µM	1.01 µM	3.11 µM	1.74 µM	3.54 µM	2.41 µM	9.89 µM	2.03 µM	6.83 µM	2.3 µM	6.16 µM	1.49 µM	4.51 µM
COc1ccc(/C=C/C(=O)c2cc3c(N)c(C(=O)Nc4ccccc4)sc3nc2C)cc1	0.105 µM	0.286 µM	0.785 µM	6.53 µM	0.318 µM	> 50 µM	2.16 µM	> 45.1 µM	0.797 µM	> 50 µM	0.184 µM	> 50 µM	0.146 µM	0.791 µM	0.195 µM	
N#C[S-].[Au+].c1ccc(CN2[CH-]N(Cc3ccccc3)C(c3ccccc3)=C2c2ccccc2)cc1	0.629 µM	2.13 µM							0.47 µM	1.88 µM			0.351 µM	1.3 µM		
CS(=O)(=O)Nc1cc(-c2ccc3ncnc(Nc4ccc5c(cnn5Cc5ccccc5F)c4)c3c2)cnc1Cl	1.09 µM	4.9 µM	2.2 µM	8.46 µM	1.54 µM	7.48 µM	0.771 µM	6.59 µM	1.57 µM	8.73 µM	1.31 µM	> 23.6 µM	0.795 µM	3.13 µM	2.1 µM	58 µM
O=C1CCCC1NC(=O)C(F)(F)F (stereo not drawn)		> 100 µM				> 100 µM		> 100 µM						> 100 µM		> 100 µM
Clc1nc(Cl)c(Cc2ccccc2)c(Cl)n1		20 µM		66.1 µM		> 100 µM		26.6 µM		8.52 µM		44.5 µM		9.16 µM		
N#CC1=C(N)Oc2c(sc3c(F)cccc23)C1c1ccc(F)cc1 (stereo not drawn)	0.447 µM	2.67 µM	1.62 µM	8.58 µM	0.521 µM	13.3 µM	1.91 µM	19.7 µM	0.604 µM	14.2 µM	0.892 µM	16.2 µM	0.363 µM	1.88 µM	0.415 µM	7.77 µM
CC1/C(=N/Nc2ccc([N+](=O)[O-])cc2)CC2C3(C)CCC2(C(C)C(=O)O)C(=O)C13 (stereo not drawn)	5.44 µM	> 100 µM	2.39 µM	51.7 µM	22.5 µM	> 100 µM	> 100 µM	> 100 µM	12.3 µM	> 100 µM	34.4 µM	> 100 µM	1.72 µM	> 100 µM	5.88 µM	> 100 µM
Cc1ccc(S(=O)(=O)Nc2nc3ccccc3nc2Nc2ccc3nsnc3c2)cc1	4.9 µM and 5.13 µM	61.3 µM and > 100 µM	3.47 µM and 3.67 µM	42.9 µM and > 100 µM	4.3 µM and 3.61 µM	34.9 µM and > 100 µM	4.38 µM and 4.11 µM	> 100 µM	4.25 µM and 3.42 µM	26.3 µM and > 29.6 µM	3.22 µM and 2.91 µM	> 100 µM	3.23 µM and 3.65 µM	14.8 µM and > 100 µM	3.36 µM and 2.92 µM	70.7 µM and > 100 µM
O=C(/C=C/c1ccc(C(F)(F)F)cc1)c1ccc(Nc2nc(NCCO)nc(N3CCOCC3)n2)cc1	1.64 µM	3.06 µM	2.34 µM	5.7 µM	2.45 µM	9.05 µM	3.25 µM	11.5 µM	1.56 µM	3.09 µM	2.24 µM	7.83 µM	1.96 µM	3.79 µM	2.15 µM	4.44 µM
CN1CCn2c(c(Sc3ccc(C(=O)NO)cc3)c3ccccc32)C1=O	1.56 µM	3.48 µM	1.94 µM	3.76 µM	2.87 µM	> 33.8 µM	1.94 µM	4.94 µM	1.92 µM	4.3 µM	1.96 µM	4.57 µM	1.87 µM	4.33 µM	2.19 µM	6.58 µM
C=C1CC[C@@H]2[C@](C)(COC(C)=O)[C@H](OC(C)=O)CC[C@@]2(C)[C@@H]1C/C=C1/C(=O)OC[C@H]1OC(C)=O	1.7 µM	3.22 µM	12.2 µM	27.3 µM	3.8 µM	16.1 µM	1.75 µM	3.38 µM	2.29 µM	5.63 µM	6.07 µM	19.9 µM	2.17 µM	4.21 µM	18.6 µM	37.7 µM

Structure (SMILES)	GI50 (SF-539 CNS)	TGI (SF-539 CNS)	GI50 (HCC-2998 colon)	TGI (HCC-2998 colon)	GI50 (MOLT-4 leukemia)	TGI (MOLT-4 leukemia)	GI50 (SK-MEL-28 melanoma)	TGI (SK-MEL-28 melanoma)	GI50 (BT-549 breast)	TGI (BT-549 breast)	GI50 (PC-3 prostate)	TGI (PC-3 prostate)	GI50 (OVCAR-3 ovarian)	TGI (OVCAR-3 ovarian)	GI50 (NCI-H460 lung)	TGI (NCI-H460 lung)
COc1cc(-c2oc3c(OC)c(O)c(OC)c(O)c3c(=O)c2OC)ccc1O		> 100 µM		> 100 µM		> 100 µM		> 100 µM		> 100 µM		> 100 µM		67.8 µM		> 100 µM
COC(=O)[C@@]1(O)C[C@H]2O[C@]1(C)n1c3ccccc3c3c4c(c5c6ccccc6n2c5c31)C(=O)NC4	0.356 µM	1.42 µM	0.609 µM	2.8 µM	0.0678 µM	0.825 µM	0.203 µM	1.26 µM	0.295 µM	1.91 µM	0.251 µM	2.95 µM	0.587 µM	3.22 µM	0.121 µM	1.38 µM
CC(=O)c1c[nH]cc1CO		> 10 µM		> 10 µM		> 10 µM		> 10 µM				> 10 µM		> 10 µM		> 10 µM
CCOC(=O)C#Cc1c(CC(=O)OCC)nnn1[C@H]1O[C@@H](CO)[C@@H]2OC(C)(C)O[C@@H]21			17.7 µM	31.8 µM	2.79 µM	7.73 µM	3.33 µM	11.4 µM	9.1 µM	21.2 µM	16.1 µM	31 µM	1.75 µM	3.22 µM	15 µM	33.2 µM
O=C1/C(=C/c2ccc(Cl)cc2)COc2ccc(O)c(O)c21	0.44 µM	1.87 µM	1.51 µM	2.96 µM	0.618 µM	> 100 µM	1.53 µM	3.06 µM	1.77 µM	4.04 µM	0.501 µM	3.48 µM	0.404 µM	1.48 µM	1.78 µM	3.89 µM
Oc1ccc(N=Nc2ccc(N=Nc3ccccc3)cc2)cc1	0.712 µM	3.03 µM	2.52 µM	11.1 µM	0.351 µM	11.9 µM	1.7 µM	3.64 µM	0.899 µM	9.06 µM	2.83 µM	16.8 µM	1.71 µM	4.77 µM	1.97 µM	6.16 µM
CC(C)C[C@@H]1NC(=O)[C@@H]2CCCN2C(=O)[C@@H]2CCCN2C(=O)[C@H](CC(C)C)NC(=O)[C@H](CO)NC(=O)[C@H](CCCCN)NC(=O)[C@H]([C@H](C)O)NC(=O)[C@@H]2CCCC[C@@H](NC1=O)C(=O)N[C@@H](Cc1ccccc1)C(=O)N1CCC[C@H]1C(=O)N[C@@H](CC(=O)O)C(=O)NCC(=O)N[C@@H](CCCN=C(N)N)C(=O)N2	> 50 µM	> 50 µM	> 50 µM	> 50 µM	> 50 µM	> 50 µM	> 50 µM	> 50 µM	> 50 µM	> 50 µM	> 50 µM	> 50 µM	> 50 µM	> 50 µM	> 50 µM	> 50 µM
CCCCCN(CCCCC)CC(O)c1cc2c(c3ccccc13)CCCC2 (stereo not drawn)	4.88 µM and 10.9 µM	16.9 µM and 23.6 µM	2.54 µM and 4.28 µM	5.99 µM and 15.6 µM	2.95 µM and 26.4 µM	13 µM and > 100 µM	12.1 µM	25.5 µM	12.4 µM and 13.8 µM	25.5 µM and 29.8 µM	5.14 µM and 5.62 µM	21.6 µM and 20.9 µM	6.22 µM and 10.5 µM	18.7 µM and 24.1 µM	3.4 µM and 4.36 µM	13.8 µM and 16.1 µM
O=C1C(=O)c2ccccc2C(O)=C1CCCCCCCCC1CCCCC1		22.4 µM		24.4 µM		12.3 µM		35 µM		27.5 µM		19.5 µM		26.5 µM		15.9 µM
COC(=O)[C@@H](C)C[C@H](Cc1ccccc1)NC(=O)c1csc([C@@H](C[C@H](C(C)C)N(C)C(=O)C2(NC(=O)[C@H]3CCCCN3C)CC2)OC(C)=O)n1	0.00868 µM and < 0.00333 µM		0.00849 µM and 0.00333 µM	> 33.3 µM	0.00965 µM and 0.00333 µM	> 33.3 µM			0.00549 µM and < 0.00333 µM	< 0.00333 µM	0.00523 µM and 0.00333 µM	> 33.3 µM	0.000567 µM and 0.00333 µM		0.0111 µM and 0.00333 µM	> 33.3 µM
S=C(Nc1ccccc1)N(Cc1ccccc1)c1ccccc1		66 µM		> 100 µM		> 100 µM		78.4 µM		4.97 µM				> 100 µM		> 100 µM
O=C1C[C@H]2CC3(CC[C@H]2CN1)OCCO3		> 100 µM		> 100 µM		> 100 µM		> 100 µM						> 100 µM		> 100 µM
CSC1C(=O)c2ccccc2/C(=N/Nc2nc3ccccc3s2)C1C (stereo not drawn)	12.5 µM	21.8 µM							8.52 µM	19.6 µM	9.28 µM	27.2 µM	7.98 µM	17.6 µM	11 µM	25.7 µM
CC(C)CCc1c(Cl)nc(Cl)nc1Cl		56.5 µM		64 µM		> 100 µM				12.3 µM		> 100 µM		24.3 µM		39.7 µM
CCOC1C=CCCO1 (stereo not drawn)		> 100 µM		9.11 µM		> 100 µM		> 100 µM				> 100 µM		> 100 µM		> 100 µM
COC(=O)c1cc2oc(/C=C3\SC(=S)N(NC(C)=O)C3=O)cc2n1Cc1ccccc1	2.79 µM	14 µM			1.97 µM	> 50 µM	9.06 µM	38.5 µM	3.34 µM	28.7 µM	1.61 µM	9.82 µM	0.53 µM	2.66 µM	1.28 µM	37.1 µM
